Tests used:
Format in all cases: functional
Rattus norvegicus [1] = assay: Hepatoprotective activity against thioacetamide(200 mg/kg, sc) induced toxicity in rat at 6 mg/kg dose(po x 7 days), expressed as %protection afforded in various levels of glutamate oxaloacetate transaminase (GOT)
Rattus norvegicus [2] = assay: Hepatoprotective activity against thioacetamide (200 mg/kg, sc) induced toxicity in rat at 6 mg/kg dose (po x 7 days), expressed as %protection afforded in various levels of alkaline phosphatase (ALP)
Rattus norvegicus [3] = assay: Hepatoprotective activity against thioacetamide(200 mg/kg, sc) induced toxicity in rat at 6 mg/kg dose(po x 7 days), expressed as %protection afforded in various levels of glutamate pyruvate transaminase (GPT)
Rattus norvegicus [4] = assay: Hepatoprotective activity against thioacetamide (200 mg/kg, sc) induced toxicity in rat at 6 mg/kg dose (po x 7 days), expressed as %protection afforded in various levels of bilirubin

Compound | GOT Level (Rattus norvegicus [1]) [U l-1] | ALP Level (Rattus norvegicus [2]) [U l-1] | GPT Level (Rattus norvegicus [3]) [U l-1] | Bilurubin Level (Rattus norvegicus [4]) [mg %]
Cc1ccc(-c2cc(Cc3nnc(N)s3)n(-c3ccccc3)n2)cc1 | 65.2 | 196 | 87.5 | 0.575
CN(C)c1ccc(Cc2c(N)n[nH]c2N)cc1 | 67.1 | 187.1 | 93.8 | 0.568
Nc1nc(N)nc(Cc2cc(-c3ccc(Cl)cc3)[nH]n2)n1 | 119 | 190.5 | 148.5 | 0.748
COc1ccc(Cc2c(N)n[nH]c2N)cc1 | 70.4 | 187 | 85.5 | 0.619
Nc1noc(N)c1Cc1ccc2c(c1)OCO2 | 101.5 | 205.8 | 109.3 | 0.69
SILYMARIN | 84.5 | 199 | 110 | 0.617
Nc1noc(N)c1Cc1ccc(Cl)cc1 | 106 | 201 | 112.5 | 0.735
CC(=O)Nc1[nH]nc(N)c1Cc1ccc(Cl)cc1 | 96.7 | 204 | 146 | 0.693
COc1ccc(Cc2c(N)noc2N)cc1 | 99.9 | 215.9 | 87.4 | 0.745
CC(=N)S [THIOACETAMIDE] | 128 | 218.9 | 171.5 | 0.829
Nc1n[nH]c(N)c1Cc1ccc(Cl)cc1 | 97.5 | 205.3 | 136.2 | 0.757
CN(C)c1ccc(Cc2c(N)noc2N)cc1 | 114 | 206.6 | 146.2 | 0.786
Nc1n[nH]c(N)c1Cc1ccc2c(c1)OCO2 | 75.6 | 196.9 | 99.2 | 0.758
Nc1nc(N)nc(Cc2cc(-c3ccc(F)cc3)[nH]n2)n1 | 121.6 | 203.2 | 129 | 0.807

From ChEMBL document CHEMBL1128770, “Amino azoles and azolo-azines as potential hepatoprotectants: Part III” (1995)
